Assay results from publication PMC6364417, “Kinase inhibitor library screening identifies synergistic drug combinations effective in sensitive and resistant melanoma cells” (Journal of Experimental & Clinical Cancer Research : CR, 2019).

Experiments:
Assay in all cases: Kinase inhibitor library screening, PrestoBlue cell viability, 1 or 10 μM, 72 h
A375 cells (parental) = conditions: for cell viability (kinase inhibitor library screening) / Cell viability in kinase inhibitor library screening, A375 Parental, 10μΜ / Cell viability in kinase inhibitor library screening, A375 Parental, 1μΜ: A375 Parental, 72 h; for viability at 1 µM / viability at 10 µM: Homo sapiens, A-375, 72 h; for viability at 1 µM: read-out: cell viability, A375 Parental, 1μΜ; for viability at 10 µM: read-out: cell viability, A375 Parental, 10μΜ
[1] = system: IGR37-XP cells (Vemurafenib-resistant); conditions: for cell viability (kinase inhibitor library screening) / Cell viability in kinase inhibitor library screening, IGR37 XP, 10μΜ / Cell viability in kinase inhibitor library screening, IGR37 XP, 1μΜ: IGR37 XP, 72 h; for viability at 1 µM / viability at 10 µM: Homo sapiens, IGR-37, 72 h; for viability at 1 µM: read-out: cell viability, IGR37 XP, 1μΜ; for viability at 10 µM: read-out: cell viability, IGR37 XP, 10μΜ; for Cell viability in kinase inhibitor library screening, IGR37 XP, 1μΜ: in %
IGR37 cells (parental) = conditions: for cell viability (kinase inhibitor library screening) / Cell viability in kinase inhibitor library screening, IGR37 Parental, 1μΜ / Cell viability in kinase inhibitor library screening, IGR37 Parental, 10μΜ: IGR37 Parental, 72 h; for viability at 1 µM / viability at 10 µM: Homo sapiens, IGR-37, 72 h; for viability at 1 µM: read-out: cell viability, IGR37 Parental, 1μΜ; for viability at 10 µM: read-out: cell viability, IGR37 Parental, 10μΜ; for Cell viability in kinase inhibitor library screening, IGR37 Parental, 1μΜ / Cell viability in kinase inhibitor library screening, IGR37 Parental, 10μΜ: in %
[2] = system: 501Mel-GP cells (Dabrafenib-resistant); conditions: 72 h; for cell viability (kinase inhibitor library screening) / Cell viability in kinase inhibitor library screening, 501Mel GP, 1μΜ / Cell viability in kinase inhibitor library screening, 501Mel GP, 10μΜ: 501Mel GP; for viability at 1 µM / viability at 10 µM: Homo sapiens; for viability at 1 µM: read-out: cell viability, 501Mel GP, 1μΜ; for viability at 10 µM: read-out: cell viability, 501Mel GP, 10μΜ; for Cell viability in kinase inhibitor library screening, 501Mel GP, 1μΜ / Cell viability in kinase inhibitor library screening, 501Mel GP, 10μΜ: in %
[3] = system: A375-XP cells (Vemurafenib-resistant); conditions: for cell viability (kinase inhibitor library screening) / Cell viability in kinase inhibitor library screening, A375 XP, 1μΜ / Cell viability in kinase inhibitor library screening, A375 XP, 10μΜ: A375 XP, 72 h; for viability at 1 µM / viability at 10 µM: Homo sapiens, A-375, 72 h; for viability at 1 µM: read-out: cell viability, A375 XP, 1μΜ; for viability at 10 µM: read-out: cell viability, A375 XP, 10μΜ
[4] = system: 501Mel-XP cells (Vemurafenib-resistant); conditions: 72 h; for cell viability (kinase inhibitor library screening) / Cell viability in kinase inhibitor library screening, 501Mel XP, 1μΜ / Cell viability in kinase inhibitor library screening, 501Mel XP, 10μΜ: 501Mel XP; for viability at 1 µM / viability at 10 µM: Homo sapiens; for viability at 1 µM: read-out: cell viability, 501Mel XP, 1μΜ; for viability at 10 µM: read-out: cell viability, 501Mel XP, 10μΜ; for Cell viability in kinase inhibitor library screening, 501Mel XP, 1μΜ / Cell viability in kinase inhibitor library screening, 501Mel XP, 10μΜ: in %
501Mel cells (parental) = conditions: 72 h; for cell viability (kinase inhibitor library screening) / Cell viability in kinase inhibitor library screening, 501Mel Parental, 1μΜ / Cell viability in kinase inhibitor library screening, 501Mel Parental, 10μΜ: 501Mel Parental; for viability at 1 µM / viability at 10 µM: Homo sapiens; for viability at 1 µM: read-out: cell viability, 501Mel Parental, 1μΜ; for viability at 10 µM: read-out: cell viability, 501Mel Parental, 10μΜ; for Cell viability in kinase inhibitor library screening, 501Mel Parental, 1μΜ / Cell viability in kinase inhibitor library screening, 501Mel Parental, 10μΜ: in %
Outline: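 Each compound was applied to parental melanoma cells and to derivatives made resistant to Vemurafenib or Dabrafenib. After treatment, viability was read with PrestoBlue on a plate reader and expressed as % of untreated cells, with each line run at least in duplicate.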

[5] = system: A375-GP cells (Dabrafenib-resistant); conditions: for cell viability (kinase inhibitor library screening) / Cell viability in kinase inhibitor library screening, A375 GP, 1μΜ / Cell viability in kinase inhibitor library screening, A375 GP, 10μΜ: A375 GP, 72 h; for viability at 1 µM / viability at 10 µM: Homo sapiens, A-375, 72 h; for viability at 1 µM: read-out: cell viability, A375 GP, 1μΜ; for viability at 10 µM: read-out: cell viability, A375 GP, 10μΜ
[6] = system: IGR37-GP cells (Dabrafenib-resistant); conditions: for cell viability (kinase inhibitor library screening) / Cell viability in kinase inhibitor library screening, IGR37 GP, 10μΜ / Cell viability in kinase inhibitor library screening, IGR37 GP, 1μΜ: IGR37 GP, 72 h; for viability at 1 µM / viability at 10 µM: Homo sapiens, IGR-37, 72 h; for viability at 1 µM: read-out: cell viability, IGR37 GP, 1μΜ; for viability at 10 µM: read-out: cell viability, IGR37 GP, 10μΜ; for Cell viability in kinase inhibitor library screening, IGR37 GP, 1μΜ: in %

## S=C(NCc1ccc2c(c1)OCO2)N1CCN(c2ncnc3c2oc2ccccc23)CC1 [Amuvatinib (MP-470)]
A375 cells (parental); 10μΜ
  cell viability (kinase inhibitor library screening): 84.8%
A375 cells (parental); 1μΜ
  cell viability (kinase inhibitor library screening): 97.4%
[1]; 10μΜ
  cell viability (kinase inhibitor library screening): 77.9%
IGR37 cells (parental); 1μΜ
  cell viability (kinase inhibitor library screening): 95.9%
IGR37 cells (parental); 10μΜ
  cell viability (kinase inhibitor library screening): 97.0%
[2]; 1μΜ
  cell viability (kinase inhibitor library screening): 105.2%
[2]; 10μΜ
  cell viability (kinase inhibitor library screening): 86.9%
[3]; 1μΜ
  cell viability (kinase inhibitor library screening): 104.7%
[3]; 10μΜ
  cell viability (kinase inhibitor library screening): 94.9%
[4]; 1μΜ
  cell viability (kinase inhibitor library screening): 100.3%
[4]; 10μΜ
  cell viability (kinase inhibitor library screening): 88.3%
501Mel cells (parental); 1μΜ
  cell viability (kinase inhibitor library screening): 98.9%
501Mel cells (parental); 10μΜ
  cell viability (kinase inhibitor library screening): 98.9%
[5]; 1μΜ
  cell viability (kinase inhibitor library screening): 95.9%
[5]; 10μΜ
  cell viability (kinase inhibitor library screening): 84.4%
[6]; 1μΜ
  cell viability (kinase inhibitor library screening): 94.7%
[6]; 10μΜ
  cell viability (kinase inhibitor library screening): 95.7%

## Cc1cc(Nc2ncnc3ccc(NC4=NC(C)(C)CO4)cc23)ccc1Oc1ccn2ncnc2c1 [Arry-380]
A375 cells (parental)
  viability at 1 µM: 105%
  viability at 10 µM: 89.6%
[1]
  viability at 1 µM: 99.7%
  viability at 10 µM: 24.3%
IGR37 cells (parental)
  viability at 1 µM: 108%
  viability at 10 µM: 103%
[2]
  viability at 1 µM: 101%
  viability at 10 µM: 56.8%
[3]
  viability at 1 µM: 106%
  viability at 10 µM: 80.2%
[4]
  viability at 1 µM: 117%
  viability at 10 µM: 52.3%
501Mel cells (parental)
  viability at 1 µM: 103%
  viability at 10 µM: 69.6%
[5]
  viability at 1 µM: 105%
  viability at 10 µM: 77.8%
[6]
  viability at 1 µM: 96.4%
  viability at 10 µM: 57.2%

## CCN1CCN(C(=O)Cc2ccc(Nc3ncc(F)c(Nc4ccc(C(=O)Nc5ccccc5Cl)cc4)n3)cc2)CC1 [Aurora A Inhibitor I]
A375 cells (parental); 10μΜ
  cell viability (kinase inhibitor library screening): 48.5%
A375 cells (parental); 1μΜ
  cell viability (kinase inhibitor library screening): 96.9%
[1]; 1μΜ
  cell viability (kinase inhibitor library screening): 92.1%
[1]; 10μΜ
  cell viability (kinase inhibitor library screening): 2.4%
IGR37 cells (parental); 1μΜ
  cell viability (kinase inhibitor library screening): 94.5%
IGR37 cells (parental); 10μΜ
  cell viability (kinase inhibitor library screening): 4.6%
[2]; 1μΜ
  cell viability (kinase inhibitor library screening): 99.5%
[2]; 10μΜ
  cell viability (kinase inhibitor library screening): 29.4%
[3]; 1μΜ
  cell viability (kinase inhibitor library screening): 95.8%
[3]; 10μΜ
  cell viability (kinase inhibitor library screening): 37.0%
[4]; 1μΜ
  cell viability (kinase inhibitor library screening): 75.4%
[4]; 10μΜ
  cell viability (kinase inhibitor library screening): 4.3%
501Mel cells (parental); 1μΜ
  cell viability (kinase inhibitor library screening): 105.7%
501Mel cells (parental); 10μΜ
  cell viability (kinase inhibitor library screening): 41.4%
[5]; 1μΜ
  cell viability (kinase inhibitor library screening): 90.9%
[5]; 10μΜ
  cell viability (kinase inhibitor library screening): 42.7%
[6]; 1μΜ
  cell viability (kinase inhibitor library screening): 90.4%
[6]; 10μΜ
  cell viability (kinase inhibitor library screening): 5.3%

## Cn1c(=O)n(-c2ccc(C(C)(C)C#N)cc2)c2c3cc(-c4cnc5ccccc5c4)ccc3ncc21 [BEZ235 (NVP-BEZ235)]
A375 cells (parental); 10μΜ
  Cell viability in kinase inhibitor library screening, A375 Parental, 10μΜ: 10.9
A375 cells (parental); 1μΜ
  Cell viability in kinase inhibitor library screening, A375 Parental, 1μΜ: 23.9
[1]; 10μΜ
  Cell viability in kinase inhibitor library screening, IGR37 XP, 10μΜ: 5.2%
[1]; 1μΜ
  Cell viability in kinase inhibitor library screening, IGR37 XP, 1μΜ: 49.3
IGR37 cells (parental); 1μΜ
  Cell viability in kinase inhibitor library screening, IGR37 Parental, 1μΜ: 26.1
IGR37 cells (parental); 10μΜ
  Cell viability in kinase inhibitor library screening, IGR37 Parental, 10μΜ: 12.4
[2]; 1μΜ
  Cell viability in kinase inhibitor library screening, 501Mel GP, 1μΜ: 19.1
[2]; 10μΜ
  Cell viability in kinase inhibitor library screening, 501Mel GP, 10μΜ: 6.4
[3]; 1μΜ
  Cell viability in kinase inhibitor library screening, A375 XP, 1μΜ: 20.9
[3]; 10μΜ
  Cell viability in kinase inhibitor library screening, A375 XP, 10μΜ: 13.2
[4]; 1μΜ
  Cell viability in kinase inhibitor library screening, 501Mel XP, 1μΜ: 11.4
[4]; 10μΜ
  Cell viability in kinase inhibitor library screening, 501Mel XP, 10μΜ: 0.9
501Mel cells (parental); 1μΜ
  Cell viability in kinase inhibitor library screening, 501Mel Parental, 1μΜ: 13.9
501Mel cells (parental); 10μΜ
  Cell viability in kinase inhibitor library screening, 501Mel Parental, 10μΜ: 2.6
[5]; 1μΜ
  Cell viability in kinase inhibitor library screening, A375 GP, 1μΜ: 22.0
[5]; 10μΜ
  Cell viability in kinase inhibitor library screening, A375 GP, 10μΜ: 8.5
[6]; 10μΜ
  Cell viability in kinase inhibitor library screening, IGR37 GP, 10μΜ: 6.1%
[6]; 1μΜ
  Cell viability in kinase inhibitor library screening, IGR37 GP, 1μΜ: 53.8

## CCN1CCN(c2ccc(Nc3cc(N(C)C(=O)Nc4c(Cl)c(OC)cc(OC)c4Cl)ncn3)cc2)CC1 [BGJ398 (NVP-BGJ398)]
A375 cells (parental)
  viability at 1 µM: 101%
  viability at 10 µM: 9%
[1]
  viability at 1 µM: 97.5%
  viability at 10 µM: 1%
IGR37 cells (parental)
  viability at 1 µM: 100%
  viability at 10 µM: 4.3%
[2]
  viability at 1 µM: 108%
  viability at 10 µM: 0.142%
[3]
  viability at 1 µM: 104%
  viability at 10 µM: 3.9%
[4]
  viability at 1 µM: 97.9%
  viability at 10 µM: -0.109%
501Mel cells (parental)
  viability at 1 µM: 96.6%
  viability at 10 µM: 0.424%
[5]
  viability at 1 µM: 101%
  viability at 10 µM: 6.6%
[6]
  viability at 1 µM: 87.7%
  viability at 10 µM: 3.2%

## CC[C@@H]1C(=O)N(C)c2cnc(Nc3ccc(C(=O)N[C@H]4CC[C@H](N5CCN(CC6CC6)CC5)CC4)cc3OC)nc2N1C(C)C [BI6727 (Volasertib)]
A375 cells (parental); 10μΜ
  Cell viability in kinase inhibitor library screening, A375 Parental, 10μΜ: 29.8
A375 cells (parental); 1μΜ
  Cell viability in kinase inhibitor library screening, A375 Parental, 1μΜ: 21.7
[1]; 10μΜ
  Cell viability in kinase inhibitor library screening, IGR37 XP, 10μΜ: 2.7%
[1]; 1μΜ
  Cell viability in kinase inhibitor library screening, IGR37 XP, 1μΜ: 65.8
IGR37 cells (parental); 1μΜ
  Cell viability in kinase inhibitor library screening, IGR37 Parental, 1μΜ: 36.2
IGR37 cells (parental); 10μΜ
  Cell viability in kinase inhibitor library screening, IGR37 Parental, 10μΜ: 43.0
[2]; 1μΜ
  Cell viability in kinase inhibitor library screening, 501Mel GP, 1μΜ: 26.5
[2]; 10μΜ
  Cell viability in kinase inhibitor library screening, 501Mel GP, 10μΜ: 0.363
[3]; 1μΜ
  Cell viability in kinase inhibitor library screening, A375 XP, 1μΜ: 37.1
[3]; 10μΜ
  Cell viability in kinase inhibitor library screening, A375 XP, 10μΜ: 16.8
[4]; 1μΜ
  Cell viability in kinase inhibitor library screening, 501Mel XP, 1μΜ: 9.9
[4]; 10μΜ
  Cell viability in kinase inhibitor library screening, 501Mel XP, 10μΜ: 0.4
501Mel cells (parental); 1μΜ
  Cell viability in kinase inhibitor library screening, 501Mel Parental, 1μΜ: 63.2
501Mel cells (parental); 10μΜ
  Cell viability in kinase inhibitor library screening, 501Mel Parental, 10μΜ: 1.3
[5]; 1μΜ
  Cell viability in kinase inhibitor library screening, A375 GP, 1μΜ: 22.8
[5]; 10μΜ
  Cell viability in kinase inhibitor library screening, A375 GP, 10μΜ: 28.0
[6]; 10μΜ
  Cell viability in kinase inhibitor library screening, IGR37 GP, 10μΜ: 8.8%
[6]; 1μΜ
  Cell viability in kinase inhibitor library screening, IGR37 GP, 1μΜ: 75.9
